Laboratory results as given in patent US9783551B2, “Pyranochromenyl phenol derivative, and pharmaceutical composition for treating metabolic syndrome or inflammatory disease” (GLACEUM, INC., priority 2013, dated 2017).

What was measured:
BV2 microglia cells = test: BV2 cell NO assay (LPS-induced NO production, Griess reagent); assay type: cell-based; settings: Mus musculus, BV-2, LPS 1 μg/ml, 24 hours
Outline: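 BV2 cells; NO suppression tested only at concentrations showing no cytotoxicity in an MTT assay (0.5 mg/ml MTT, absorbance 540 nm). NO read by absorbance at 540 nm; suppression rate taken as the difference in NO produced between control and treated groups; mean of three repeats.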

[1] = Chemical stability in 1% HCl in MeOH (HPLC); assay type: physicochemical; settings: for stability in words: until 3 days (72 hours)
Procedure: The relative chemical stability of glabridin of Preparation Example 1, Example 3 (Compound 4), Example 4 (Compound 5) and Example 14 (Compound 15) were compared with each other. That is, 50 mg of each of glabridin, Compound 4, Compound 5, and Compound 15 was exactly weighed, dissolved in 50 ml of 1% HCl in MeOH and 10 ml of 1% NaOH in MeOH, and the concentrations of the compounds were examined by HPLC at each time level of 0, 8 hrs, 12 hrs, 24 hrs, 48 hrs, and 72 hrs. At this time, the concentrations of the compounds remaining in 1% HCl in MeOH and 1% NaOH in MeOH were determined using an internal standard (Compound 14 of Example 13). That is, 10 mg of Compound 14 was exactly weighed and dissolved in 100 ml of acetonitrile, 9 ml of this solution was mixed with 1 ml of the sample aliquoted at each time level, the mixture was analyzed by HPLC, and the concentrations of the compounds in the internal standard and in the above samples were determined by comparing the initial values.
The concentrations of the compounds remaining in 1% HCl in MeOH and 1% NaOH in MeOH at each time level are in the following Table 8 and FIG. 7 and the following Table 9 and FIG. 8, respectively.
The numerical values exceeding 100% in the following Tables 8 and 9 show those measured at a concentration is slightly higher than the initial measurement value, and this is due to the fact that an average value of the measured values was simply shown without considering a statistical error generated during the measurement. Since the measured value of about 95% or more is deemed to have practically no change in concentration, it may be seen that the compounds of the present invention are excellent in chemical stability.

DIO mice = test: Anti-obesity effect for DIO mice (body weight); assay type: in vivo, C57BL/6 mice; settings: Mus musculus, 672 h; 4 weeks, 150 mg/kg, oral gavage once daily
Outline: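 Female C57BL/6 mice made obese by ≥10 weeks of high-fat diet; compounds suspended in 0.5% methyl cellulose and given by oral gavage once daily for 28 days. Body weight measured twice weekly; effect (%) = (control weight − treated weight)/control weight × 100.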

PTP1B = PTP1B (Homo sapiens (Human), UniProt P18031); test: Experiment of PTP1B inhibition (p-NPP dephosphorylation); assay type: biochemical; settings: 2 mM p-NPP substrate, 30° C., 30 minutes
Outline: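 PTP1B reacted with 2 mM p-NPP in 50 mM citrate pH 6.0, 0.1 M NaCl, 1 mM EDTA, 1 mM DTT plus compound at various concentrations, 30 °C for 30 min. Reaction stopped with 1 N NaOH; p-nitrophenol absorbance gives IC50.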

PTP1B, sequence (P18031 whole entry, species assumed): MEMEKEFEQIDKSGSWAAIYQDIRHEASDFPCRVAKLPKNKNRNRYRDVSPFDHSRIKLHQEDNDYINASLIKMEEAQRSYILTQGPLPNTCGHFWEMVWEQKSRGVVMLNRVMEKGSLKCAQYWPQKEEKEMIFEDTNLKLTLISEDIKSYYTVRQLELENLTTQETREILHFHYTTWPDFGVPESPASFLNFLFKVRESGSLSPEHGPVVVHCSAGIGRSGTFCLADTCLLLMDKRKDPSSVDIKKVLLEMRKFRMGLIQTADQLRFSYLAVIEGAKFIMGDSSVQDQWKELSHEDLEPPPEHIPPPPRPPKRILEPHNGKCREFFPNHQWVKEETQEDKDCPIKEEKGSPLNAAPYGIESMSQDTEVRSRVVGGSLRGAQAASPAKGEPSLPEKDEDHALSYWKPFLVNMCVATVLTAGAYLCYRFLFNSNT

Compound	IC50 (BV2 microglia cells)	concentration of compound remaining [1]; 0	concentration of compound remaining ([1]; 8 h)	concentration of compound remaining ([1]; 24 h)	concentration of compound remaining ([1]; 48 h)	concentration of compound remaining ([1]; 72 h)	stability in words [1]	inhibition in vivo at 150 mg/kg (DIO mice)	IC50 (PTP1B)
CCCc1ccc(C2COc3c(ccc4c3CCC(C)(C)O4)C2)c(O)c1 (stereo not drawn) [Compound 5, 3-(2-hydroxy-4-propylphenyl)-8,8-dimethyl-2,3,4,8,9,10-hexahydropyrano [2,3-f] chromene]	3.8 µM	100%	102%	102%	101%	101%	very stable	19%	2.8 µM
CCOc1ccc(C2COc3c(ccc4c3CCC(C)(C)O4)C2)c(O)c1 (stereo not drawn) [Compound 15, 3-(2-hydroxy-4-ethoxyphenyl)-8,8-dimethyl-2,3,4,8,9,10-hexahydropyrano [2,3-f] chromene]	2.7 µM	100%	98%	100%	98%	100%	very stable	14%	8.6 µM
